Laboratory results as given in ChEMBL document CHEMBL1201862, “PubChem BioAssay data set” (2004).
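Cultured in 96-well plates, cells were exposed to test compound for 48 hours across five concentrations. The concentration for 50% growth inhibition is given as GI50.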 Calls of active or inactive are those of the source. Cut-off read from the data, not from the text of the source: active = GI50 up to about 1.1 µM and inactive = higher.

How the values were obtained:
Assay in all cases: growth of human tumour cells (NCI), 48 h
BT-549 = test system: BT-549
T47D = test system: T47D
MDA-MB-231 = test system: MDA-MB-231
HOP-18 = test system: HOP-18
XF498 = test system: XF498
KM-20L2 = test system: KM-20L2
RXF 631 = test system: RXF 631
M19-MEL = test system: M19-MEL
LXFL 529 = test system: LXFL 529

Row | Compound | GI50 (BT-549) | GI50 (T47D) | GI50 (MDA-MB-231) | GI50 (HOP-18) | GI50 (XF498) | GI50 (KM-20L2) | GI50 (RXF 631) | GI50 (M19-MEL) | GI50 (LXFL 529)
1 | C=Cc1cnc([N+](=O)[O-])n1C | 46.3 µM (inactive) | 46.5 µM (inactive) | > 100 µM (inactive) |  |  |  |  |  | 
2 | CC(=O)OC1/C=C(\C)C(OC(C)=O)C/C=C(/C)CCC2C(/C=C/C1=O)C2(C)C (stereo unspecified) |  |  |  | > 100 µM (inactive) | 35.7 µM (inactive) | > 100 µM (inactive) | > 100 µM (inactive) | > 100 µM (inactive) | > 100 µM (inactive)
3 | CC(C)(C)OC(=O)NC(Cc1ccc(OCc2ccccc2)cc1)C(=O)NC(COCc1ccccc1)C(=O)Oc1c(Cl)c(Cl)c(Cl)c(Cl)c1Cl (stereo unspecified) | 20 µM (inactive) | 22.8 µM (inactive) | 13.5 µM (inactive) |  |  |  |  |  | 
4 | C=CC[N+]12CN3CN(CN(C3)C1)C2 | 26.7 µM (inactive) | 27 µM (inactive) | 32.2 µM (inactive) |  |  |  |  |  | 
5 | S=P1(N2CCCCC2)Oc2ccc3ccccc3c2-c2c(ccc3ccccc23)O1 |  |  |  | > 71.8 µM (inactive) | 56.9 µM (inactive) | > 78.9 µM (inactive) |  | 71 µM (inactive) | 
6 | CSc1nc2nc(C)c(C)nc2c(=O)[nH]1 |  |  |  | > 100 µM (inactive) | > 100 µM (inactive) | > 100 µM (inactive) |  | > 100 µM (inactive) | > 100 µM (inactive)
7 | O=C1CCC2COc3ccc(O)c1c32 (stereo unspecified) |  |  |  | > 100 µM (inactive) | > 100 µM (inactive) | > 100 µM (inactive) |  | > 100 µM (inactive) | > 100 µM (inactive)
8 | CNc1ccc2c(c1)[C@@]1(C)c3ccccc3[C@@H](C2)N1C | 17.6 µM (inactive) | 28.1 µM (inactive) | 23.2 µM (inactive) |  |  |  |  |  | 
9 | C=C1Oc2nc3ccccc3c(=O)n2C1(C)C |  |  |  | > 100 µM (inactive) | > 100 µM (inactive) | > 100 µM (inactive) |  | > 100 µM (inactive) | > 100 µM (inactive)
10 | O=c1[nH]nc(-c2ccccc2)n1/N=C/c1ccccc1Cl | 37.1 µM (inactive) | 24.8 µM (inactive) | > 100 µM (inactive) |  |  |  |  |  | 
11 | O=C1N(C2CCCCC2)CC12CCCCC2 |  |  |  | 94.6 µM (inactive) | > 100 µM (inactive) | > 100 µM (inactive) | > 100 µM (inactive) | > 100 µM (inactive) | 
12 | COc1ccc2c(c1)OCCC1=C2SCC2(C)CCN=C12 (stereo unspecified) |  |  |  | 48.3 µM (inactive) | > 100 µM (inactive) | 36.1 µM (inactive) |  |  | > 100 µM (inactive)
13 | O=c1c2ccccc2nc(-c2ccc(Br)cc2)n1NC1OC(CO)C(O)C(O)C1O (stereo unspecified) |  |  |  | > 100 µM (inactive) |  | > 100 µM (inactive) | > 100 µM (inactive) | > 100 µM (inactive) | 45.1 µM (inactive)
14 | COc1c2c(nc3ccccc13)-c1cc3c(c(=O)n1C2)COC(=O)C3(O)CC(=O)N1CCOCC1 (stereo unspecified) | 5.62 µM (inactive) | 3.63 µM (inactive) | 69.7 µM (inactive) | 18 µM (inactive) | 7.96 µM (inactive) | 15.4 µM (inactive) |  | 5.58 µM (inactive) | 13.9 µM (inactive)
15 | CCOC(=O)c1ccc(C(=O)n2ccnc2)[nH]1 | > 100 µM (inactive) | > 100 µM (inactive) | > 100 µM (inactive) |  |  |  |  |  | 
16 | CCOC(=O)CC[C@H](NC(=O)c1nc[nH]c1/N=N/N(C)C)C(=O)OCC |  |  |  |  | 15.3 µM (inactive) |  |  | > 100 µM (inactive) | > 100 µM (inactive)
17 | CCC1=CCN(c2ccc(C)cc2)OC1c1ccc(OC)cc1 (stereo unspecified) |  |  |  |  | 46.6 µM (inactive) | 66.5 µM (inactive) | 52.4 µM (inactive) | 42.7 µM (inactive) | 62.4 µM (inactive)
18 | c1ccc2c(c1)nnn2CNc1ccc(N2CCOCC2)cc1 |  |  |  | > 100 µM (inactive) | > 100 µM (inactive) | > 100 µM (inactive) |  | > 100 µM (inactive) | > 100 µM (inactive)
19 | COc1ccc(/N=C\c2cc(OC)c(OC)c(OC)c2)cc1 |  |  |  | > 100 µM (inactive) | > 100 µM (inactive) | > 100 µM (inactive) |  | > 100 µM (inactive) | 51.6 µM (inactive)
20 | COc1ccc(C(C2C(=O)N(C)C(=O)N(C)C2=O)C(F)(F)C(=O)N(C)C)cc1 (stereo unspecified) | > 100 µM (inactive) | > 100 µM (inactive) | > 100 µM (inactive) |  |  |  |  |  | 
21 | CCCCc1c2cnccc2c(CCCC)c2c1[nH]c1ccccc12 |  |  |  | 3.59 µM (inactive) | 5.19 µM (inactive) | 13.6 µM (inactive) |  | 12.4 µM (inactive) | 11.4 µM (inactive)
22 | COc1ccc2c(OC)c3ccoc3nc2c1O |  |  |  | 0.114 µM (active) | > 100 µM (inactive) | > 100 µM (inactive) |  | 54.8 µM (inactive) | > 100 µM (inactive)
23 | O=C(O)CNS(=O)(=O)c1ccc(NC(=O)c2ccc(F)cc2)cc1 |  |  |  | > 100 µM (inactive) | > 100 µM (inactive) | > 100 µM (inactive) | > 100 µM (inactive) | > 100 µM (inactive) | > 100 µM (inactive)
24 | C(=C/c1nc2ccccc2o1)/c1ccc2c(c1)OCO2 |  |  |  | 5.21 µM (inactive) | 20.5 µM (inactive) | 6.61 µM (inactive) |  | 21.2 µM (inactive) | 
25 | COC(=O)Cc1c([C@H]2[C@H](CC(=O)OC)c3ccccc3N2C(=O)C(F)(F)F)[nH]c2ccccc12 | 27.6 µM (inactive) | 36.5 µM (inactive) | 20.7 µM (inactive) |  |  |  |  |  | 
26 | COc1ccc(OC)c(/C=C/NC=O)c1 |  |  |  | > 100 µM (inactive) | > 100 µM (inactive) | > 100 µM (inactive) |  | > 100 µM (inactive) | > 100 µM (inactive)

Row | Compound | GI50 (BT-549) | GI50 (T47D) | GI50 (MDA-MB-231) | GI50 (HOP-18) | GI50 (XF498) | GI50 (KM-20L2) | GI50 (RXF 631) | GI50 (M19-MEL) | GI50 (LXFL 529)
27 | COc1ccc(OCC(C)(C)O)cc1 |  |  |  | > 100 µM (inactive) | > 100 µM (inactive) | > 100 µM (inactive) |  |  | 
28 | NC(=O)c1ccccc1NC(=O)C(=O)C(c1cnc2ccc([N+](=O)[O-])cc2n1)[N+](=O)[O-] (stereo unspecified) | > 100 µM (inactive) | > 100 µM (inactive) | > 100 µM (inactive) |  |  |  |  |  | 
29 | O=C(N/N=C1\C(=O)Nc2ccc(Br)cc21)/C(O)=C/C(=O)c1ccc(Cl)cc1 | 35.5 µM (inactive) | 36.6 µM (inactive) | 45.5 µM (inactive) |  |  |  |  |  | 
30 | Cc1nc2ccc(S(=O)(=O)Nc3nccs3)cc2c(=O)n1NS(=O)(=O)c1nccs1 | > 100 µM (inactive) | > 100 µM (inactive) | > 100 µM (inactive) |  |  |  |  |  | 
31 | C#CCN1C(=O)CN2C(Cl)(Cl)C2(c2ccccc2)c2cc(Cl)ccc21 (stereo unspecified) |  |  |  | > 100 µM (inactive) |  | 33.3 µM (inactive) |  | 84.3 µM (inactive) | > 100 µM (inactive)
32 | C=C1COC(/C=C(\C)CC/C=C(\C)CCl)C1 (stereo unspecified) |  |  |  |  | > 100 µM (inactive) | > 100 µM (inactive) |  | > 100 µM (inactive) | > 100 µM (inactive)
33 | CC(C)(C)c1ccc(C(O)c2ccc(C(C)(C)C)cc2)cc1 |  |  |  | 17.5 µM (inactive) | 15.1 µM (inactive) | 17.7 µM (inactive) |  | 13.7 µM (inactive) | 15.5 µM (inactive)
34 | COc1ccc(-c2csc3c2[N+]2(C)C=CC=C2C3N2CCCC2)cc1 (stereo unspecified) | 8.2 µM (inactive) | 16.3 µM (inactive) | 94 µM (inactive) |  |  |  |  |  | 
35 | N#CC1(c2nc3ccccc3o2)C(=O)C(=O)N(C2C3CC4CC(C3)CC2C4)C(=O)C1=O (stereo unspecified) |  |  |  | > 100 µM (inactive) | > 100 µM (inactive) | > 100 µM (inactive) |  | > 100 µM (inactive) | > 100 µM (inactive)
36 | CCCCCCCCCCCC(=O)OCC(C[As](=O)(O)O)OC(=O)CCCCCCCCCCC (stereo unspecified) | 7.1 µM (inactive) | 14.7 µM (inactive) | 4.54 µM (inactive) | 3.93 µM (inactive) | 2.9 µM (inactive) | 5.66 µM (inactive) |  | 4.25 µM (inactive) | 2.06 µM (inactive)
37 | CCOc1ccc(NC(=O)C(=O)CC(=O)c2c(C)[n+]([O-])c3ccccc3[n+]2[O-])cc1 |  |  |  | 24.9 µM (inactive) | 59.8 µM (inactive) | > 100 µM (inactive) | > 100 µM (inactive) | > 100 µM (inactive) | > 100 µM (inactive)
38 | COc1cc(C2C(C(=O)NCc3ccccc3)=C(C)NC(C)=C2C(=O)NCc2ccccc2)ccc1O |  |  |  |  | 61.5 µM (inactive) | 33.2 µM (inactive) | 27.3 µM (inactive) | 39.4 µM (inactive) | 28.6 µM (inactive)
39 | CCCCCCCC(=O)OCC1OC(n2cc(F)c(=O)[nH]c2=O)C(NC(=O)OCc2ccccc2)C(OC(=O)CCCCCCC)C1O (stereo unspecified) |  |  |  |  |  | 34.7 µM (inactive) |  | 23.6 µM (inactive) | 21.3 µM (inactive)
40 | CCOC(=O)C(NC(=O)N(C1=NCC(C)S1)C1CCCCC1)(OC)C(F)(F)F (stereo unspecified) | 32.3 µM (inactive) | 32.5 µM (inactive) | 46.5 µM (inactive) |  |  |  |  |  | 
41 | COc1ccc(N(C)C(=O)N(C)c2ccc([N+](=O)[O-])cc2)cc1 | 44.8 µM (inactive) | 66.4 µM (inactive) | 45.3 µM (inactive) |  |  |  |  |  | 
42 | O=C1NC2(CCCCC2)C2CCCCC(O)C12 (stereo unspecified) |  |  |  |  |  | > 100 µM (inactive) | > 100 µM (inactive) | > 100 µM (inactive) | > 100 µM (inactive)
43 | CC1(c2nc3ccccc3[nH]2)CCC(C#N)C(C)(C)O1 (stereo unspecified) | > 100 µM (inactive) | > 100 µM (inactive) | > 100 µM (inactive) |  |  |  |  |  | 
44 | COC(=O)c1cc2c(s1)C(=O)c1ccccc1-2 |  |  |  | > 100 µM (inactive) |  | > 100 µM (inactive) | > 100 µM (inactive) | > 100 µM (inactive) | > 100 µM (inactive)
45 | COc1cc(CO)c(CC(=O)NCCCc2ccccc2)cc1OC | > 100 µM (inactive) | 15 µM (inactive) | > 100 µM (inactive) |  |  |  |  |  | 
46 | CS(=O)(=O)c1n[nH]c2nc(O)nc(O)c12 | > 10 µM (inactive) | > 10 µM (inactive) | > 10 µM (inactive) |  |  |  |  |  | 
47 | CC(C)C(=O)/C=C/c1ccc(Br)cc1 |  |  |  |  | 16.8 µM (inactive) | 9.86 µM (inactive) |  | 15.4 µM (inactive) | 16.1 µM (inactive)
48 | Cc1ccc(N2Cc3c(ccc4ccccc34)OP2(=O)Oc2ccc(Cl)c(C)c2)cc1 (stereo unspecified) |  |  |  | > 61.1 µM (inactive) | > 100 µM (inactive) | > 100 µM (inactive) |  | > 100 µM (inactive) | 
49 | CCC1=C(C(C)=O)[C@@H]2CCCCC(C(=O)OC)[C@@H]2C1=O (stereo partly specified) |  |  |  | 47 µM (inactive) |  | > 100 µM (inactive) |  | 79.4 µM (inactive) | > 100 µM (inactive)
50 | C=C1CCC2[C@@H](CCC3[C@]2(C)CCC[C@]3(C)C(=O)OC)C1CCO (stereo partly specified) |  |  |  | 16 µM (inactive) | 10.2 µM (inactive) | 9.66 µM (inactive) |  | 15 µM (inactive) | 8.89 µM (inactive)
51 | COc1ccc(C2C3C(=O)C=CC(=O)C3[C@@H]2C)cc1OC (stereo partly specified) |  |  |  | > 100 µM (inactive) | 56.1 µM (inactive) | > 100 µM (inactive) | > 100 µM (inactive) | > 100 µM (inactive) | 42.4 µM (inactive)
